# Laboratory results taken from the supplement of paper PMC7224384.
# Key:
# [1] = test system: MDA-MB-453; test: drug sensitivity score (DSS), in combination with BLU9931 (DSS (weighted AUC score)); higher = more sensitive (stronger viability decrease); extreme values may be limits of the assay; conditions: BLU9931 100 nM; 72 h
# Outline: (§1)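 Drug sensitivity scores come from a weighted area under a four-parameter logistic fit to percent viability, normalised per plate to control wells. Viability was based on cellular ATP read with CellTiterGlo 2.0 after 72 h at 37 °C, 5% CO2. Each 384-well plate carried FIMM Oncology set compounds in singlicate at five 10-fold dilutions, with 2000 MDA-MB-453 cells per well in medium with or without an FGFR4 inhibitor at 100 nM final.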
# [2] = test system: MDA-MB-453; test: drug sensitivity score (DSS), single agent (DSS (weighted AUC score)); higher = more sensitive (stronger viability decrease); extreme values may be limits of the assay; conditions: BLU9931 0 nM; 72 h
# Outline: as §1
SMILES,drug sensitivity score [1],drug sensitivity score [2]
CCN(CC)CCCC(C)Nc1ccnc2cc(Cl)ccc12 (stereo not given) [Chloroquine],7,7.6
CC(C)[C@H]1C(=O)N[C@@H](CCCNC(=N)N)C(=O)NCC(=O)N[C@@H](CC(=O)O)C(=O)N[C@H](Cc2ccccc2)C(=O)N1C [Cilengitide],0,0
N.N.[Cl][Pt][Cl] [Cisplatin],6.5,6.5
Nc1nc(Cl)nc2c1ncn2[C@H]1C[C@H](O)[C@@H](CO)O1 [Cladribine],0,0
Nc1nc(Cl)nc2c1ncn2[C@@H]1O[C@H](CO)[C@@H](O)[C@@H]1F [Clofarabine],3.9,4.4
CCN(CC)CCOc1ccc(C(=C(Cl)c2ccccc2)c2ccccc2)cc1 [Clomifene],4,5.8
O=C(c1ccc(F)c(F)c1Nc1ccc(I)cc1F)N1CC(O)([C@@H]2CCCCN2)C1 [Cobimetinib],0.3,1.7
COc1c(OCCCN2CCOCC2)ccc2c1N=C(NC(=O)c1cnc(N)nc1)N1CCN=C21 [Copanlisib],23.4,22.4
CC1(COc2ccc3c(c2)ncn3-c2ccc3cccc(N4CCC(N)CC4)c3n2)COC1 [Crenolanib],6.5,7.5
C[C@@H](Oc1cc(-c2cnn(C3CCNCC3)c2)cnc1N)c1c(Cl)ccc(F)c1Cl [Crizotinib],0,0
Nc1ccn([C@@H]2O[C@H](CO)[C@@H](O)[C@@H]2O)c(=O)n1 [Cytarabine],0.1,0.8
CC(C)(C)c1nc(-c2cccc(NS(=O)(=O)c3c(F)cccc3F)c2F)c(-c2ccnc(N)n2)s1 [Dabrafenib],0.4,1.5
COc1cc2ncnc(Nc3ccc(F)c(Cl)c3)c2cc1NC(=O)/C=C/CN1CCCCC1 [Dacomitinib],8.6,7.3
Cc1c2oc3c(C)ccc(C(=O)N[C@@H]4C(=O)N[C@H](C(C)C)C(=O)N5CCC[C@H]5C(=O)N(C)CC(=O)N(C)[C@@H](C(C)C)C(=O)O[C@@H]4C)c3nc-2c(C(=O)N[C@@H]2C(=O)N[C@H](C(C)C)C(=O)N3CCC[C@H]3C(=O)N(C)CC(=O)N(C)[C@@H](C(C)C)C(=O)O[C@@H]2C)c(N)c1=O [Dactinomycin],22,21
Cn1c(=O)n(-c2ccc(C(C)(C)C#N)cc2)c2c3cc(-c4cnc5ccccc5c4)ccc3ncc21 [Dactolisib],18.3,16.3
CO[C@@H](C(=O)N1Cc2[nH]nc(NC(=O)c3ccc(N4CCN(C)CC4)cc3)c2C1)c1ccccc1 [Danusertib],0,0.3
O=C(/C=C/c1cccnc1)NCCCCC1CCN(C(=O)c2ccccc2)CC1 [Daporinad],28.6,30.5
CCN(CC)CCN(Cc1ccc(-c2ccc(C(F)(F)F)cc2)cc1)C(=O)Cn1c(SCc2ccc(F)cc2)nc(=O)c2c1CCC2 [Darapladib],0,1.5
Cc1nc(Nc2ncc(C(=O)Nc3c(C)cccc3Cl)s2)cc(N2CCN(CCO)CC2)n1 [Dasatinib],0,0
COc1cccc2c1C(=O)c1c(O)c3c(c(O)c1C2=O)C[C@@](O)(C(C)=O)C[C@@H]3O[C@H]1C[C@H](N)[C@H](O)[C@H](C)O1 [Daunorubicin],5.4,7.4
CC[C@@](C)(Nc1ccnc(-c2c[nH]c3ncccc23)n1)C(=O)NCC(F)(F)F [Decernotinib],0,0
Nc1ncn([C@H]2C[C@H](O)[C@@H](CO)O2)c(=O)n1 [Decitabine],0,0
CC(=O)N(O)CCCCCNC(=O)CCC(=O)N(O)CCCCCNC(=O)CCC(=O)N(O)CCCCCN [Deferoxamine],4.3,2.3
C[C@@H]1C[C@H]2[C@@H]3CCC4=CC(=O)C=C[C@]4(C)[C@@]3(F)[C@@H](O)C[C@]2(C)[C@@]1(O)C(=O)CO [Dexamethasone],0,4
C[C@H]1O[C@@H](O[C@H]2[C@@H](O)C[C@H](O[C@H]3[C@@H](O)C[C@H](O[C@H]4CC[C@@]5(C)[C@H](CC[C@@H]6[C@@H]5C[C@@H](O)[C@]5(C)[C@@H](C7=CC(=O)OC7)CC[C@]65O)C4)O[C@@H]3C)O[C@@H]2C)C[C@H](O)[C@@H]1O [Digoxin],10.6,8.2
